{"source": "patent US7087757B2", "about": "“Phenyl-substituted imidazopyridines” (Ortho-McNeil Pharmaceutical, Inc., priority 2000, dated 2006)", "target": "T1, human histamine H3 receptor (Homo sapiens, UniProt Q9Y5N1)", "T1 construct": "One microgram supercoiled H3 receptor cDNA was added to the cells and mixed; expressed in transfected cells; membranes prepared from cell pellets", "T1 sequence (Q9Y5N1 whole entry)": "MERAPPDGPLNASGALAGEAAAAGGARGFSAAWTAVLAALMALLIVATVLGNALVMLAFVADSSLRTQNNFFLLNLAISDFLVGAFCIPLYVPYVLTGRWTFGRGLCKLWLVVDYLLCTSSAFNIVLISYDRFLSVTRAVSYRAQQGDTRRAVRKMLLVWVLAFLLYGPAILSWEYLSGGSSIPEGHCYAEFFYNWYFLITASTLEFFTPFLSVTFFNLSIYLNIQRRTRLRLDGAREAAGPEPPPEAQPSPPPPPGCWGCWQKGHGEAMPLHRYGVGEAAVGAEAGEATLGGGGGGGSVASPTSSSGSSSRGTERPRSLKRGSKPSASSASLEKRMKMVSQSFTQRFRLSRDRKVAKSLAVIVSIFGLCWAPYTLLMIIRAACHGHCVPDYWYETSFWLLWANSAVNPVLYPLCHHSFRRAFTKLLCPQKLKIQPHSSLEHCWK", "assay": "[3H]-N-methylhistamine binding", "settings": "membranes of histamine H3 receptor-expressing SK-N-MC cells; 0.8 nM [3H]-N-methylhistamine; 45 minutes at 25° C.; Ki calculated with KD of 800 pM", "experimental": "Screening using the human receptor is particularly important for the identification of new therapies for the treatment of human disease.\nA 10 cm tissue culture dish with a confluent monolayer of SK-N-MC cells was split two days prior to transfection. Using sterile technique the media was removed and the cells were detached from the dish by the addition of trypsin. One fifth of the cells were then placed onto a new 10 cm dish. Cells were grown in a 37° C. incubator with 5% CO2 in Minimal Essential Media Eagle with 10% Fetal Bovine Serum. After two days cells were approximately 80% confluent. These were removed from the dish with trypsin and pelleted in a clinical centrifuge. […] One microgram supercoiled H3 receptor cDNA was added to the cells and mixed. The voltage for the electroporation was set at 0.25 kV, the capacitance is set at 960 μF.\nAfter electroporation the cells were diluted into 10 mL complete media and plated onto four 10 cm dishes. Due to the variability in the efficiency of electroporation, four different concentrations of cells were plated. The ratios used were: 1:20, 1:10, and 1:5, with the remainder of the cells being added to the fourth dish. The cells were allowed to recover for 24 hours before adding the selection media (complete media with 600 μg/ml G418). After 10 days dishes were analyzed for surviving colonies of cells. Dishes with well-isolated colonies were used. Cells from individual colonies were isolated and tested. SK-N-MC cells were used because they give efficient coupling for inhibition of adenylate cyclase. The clones that gave the most robust inhibition of adenylate cyclase in response to histamine were used for further study.\nCell pellets from histamine H3 receptor-expressing SK-N-MC cells were homogenized in 20 mM Tris HCl/0.5 mM EDTA. Supernatants from a 800 g spin were collected, reccentrifuged at 30,000 g for 30 minutes. Pellets were rehomogenized in 50 mM Tris/5 mM EDTA (pH 7.4). Membranes were incubated with 0.8 nM [^3H]-N-methylhistamine plus/minus test compounds for 45 minutes at 25° C. and harvested by rapid filtration over GF/C glass fiber filters (pretreated with 0.3% polyethylenimine) followed by four washes with ice cold buffer. Filters were dried, added to 4 mL scintillation cocktail and then counted on a liquid scintillation counter."}
{"smiles": "Cc1ccn2cc(-c3ccc(C#CCCN4CCCCC4)cc3)nc2c1", "note": "[Example 33, 2-[4-[4-Piperidinobut-1-ynyl]phenyl]-7-methylimidazo[1,2-a]pyridine]", "values": [{"measurement": "Ki", "result": 3, "unit": "nM"}]}
{"smiles": "Cc1cccn2cc(-c3ccc(OCC(O)CN4CCN(CCc5ccccc5)CC4)cc3)nc12", "note": "(stereo not shown) [Example 50, 2-[4-[2-Hydroxy-3-(4-phenethylpiperazino)propoxy]phenyl]-8-methylimidazo[1,2-a]pyridi]", "values": [{"measurement": "Ki", "result": 1000, "unit": "nM"}]}
{"smiles": "Cc1cccn2cc(-c3ccc(NS(=O)(=O)CCCN4CCCCC4)cc3)nc12", "note": "[Example 53, 3-Piperidin-1-yl-propane-1-sulfonic acid [4-(8-methyl-imidazo[1,2-a]pyridin-2-yl)-phenyl]]", "values": [{"measurement": "Ki", "result": 630, "unit": "nM"}]}
{"smiles": "Cc1cccn2cc(-c3ccc(OCCCN4CCOCC4)cc3)nc12", "note": "[Example 55, 2-(4-Morpholinopropoxyphenyl)-8-methylimidazo[1,2-a]pyridine]", "values": [{"measurement": "Ki", "result": 25, "unit": "nM"}]}
{"smiles": "Cc1cccn2cc(-c3ccc(OCCCNC4CCN(Cc5ccccc5)CC4)cc3)nc12", "note": "[Example 44, 2-[4-[N-[(1-Benzylpiperidino)amino]propoxy]phenyl]-8-methylimidazo[1,2-a]pyridine]", "values": [{"measurement": "Ki", "result": 150, "unit": "nM"}]}
{"smiles": "Cc1cccn2cc(-c3ccc(OCCCN4CCN(CCc5ccccc5)CC4)cc3)nc12", "note": "[Example 45, 2-[4-[3-(4-Phenethylpiperazino)propoxy]phenyl]-8-methylimidazo[1,2-a]pyridine]", "values": [{"measurement": "Ki", "result": 500, "unit": "nM"}]}
{"smiles": "CCCN(CCC)CC(C)COc1ccc(-c2cn3cccc(C)c3n2)cc1", "note": "(stereo not shown) [Example 5, {2-Methyl-3-[4-(8-methyl-imidazo[1,2-a]pyridin-2-yl)-phenoxy]-propyl}-dipropyl-amine]", "values": [{"measurement": "Ki", "result": 50, "unit": "nM"}]}
{"smiles": "CCCN(CCC)CC(O)COc1ccc(-c2cn3cccc(C)c3n2)cc1", "note": "(stereo not shown) [Example 47, 2-(4-Dipropylamino(2-hydroxy)propoxyphenyl)-8-methylimidazo[1,2-a]pyridine]", "values": [{"measurement": "Ki", "result": 500, "unit": "nM"}]}
{"smiles": "Cc1ccn2cc(-c3ccc(OCCCN4CCCCC4)cc3C)nc2c1", "note": "[Example 22, 2-(4-Piperidinopropoxy-2-methylphenyl)-7-methylimidazo[1,2-a]pyridine]", "values": [{"measurement": "Ki", "result": 1, "unit": "nM"}]}
{"smiles": "Cc1ccn2cc(-c3ccc(OCCCN4CCCC4)cc3)nc2c1", "note": "[Example 18, 2-(4-Pyrrolidinopropoxyphenyl)-7-methylimidazo[1,2-a]pyridine]", "values": [{"measurement": "Ki", "result": 2, "unit": "nM"}]}
{"smiles": "CCN(CC)CCNC(=O)c1ccc(-c2cn3cccc(C)c3n2)cc1", "note": "[Example 1, N-(2-Diethylamino-ethyl)-4-(8-methyl-imidazo[1,2-a]pyridin-2-yl)-benzamide]", "values": [{"measurement": "Ki", "result": 90, "unit": "nM"}]}
{"smiles": "Cc1ccn2cc(-c3ccc(CCCCN4CCCCCC4)cc3)nc2c1", "note": "[Example 39, 2-[4-(4-Azepan-1-yl-butyl)-phenyl]-7-methyl-imidazo[1,2-a]pyridine]", "values": [{"measurement": "Ki", "result": 57, "unit": "nM"}]}
{"smiles": "Cc1ccn2cc(-c3ccc(CCCCN4CCCCC4)cc3)nc2c1", "note": "[Example 38, 7-Methyl-2-[4-(4-piperdin-1-yl-butyl)-phenyl]imidazo[1,2-a]pyridine]", "values": [{"measurement": "Ki", "result": 29, "unit": "nM"}]}
